Data on 14 compounds can be found in US7390826B2, “Inhibitors of animal cell motility and growth” (The Board of Trustees of The University of Illinois, priority 2002, dated 2008).

One test has as its system Xenopus laevis embryos. Briefly: frog embryo morphogenesis assay (scoring of developmental defects). Format: in vivo. Particulars: Xenopus laevis, read-out: EC50 with respect to the defective phenotype at 72 hr following treatment. The source says:
In order to identify compounds that specifically perturb morphogenesis in the frog embryo, a suitable method for scoring embryos by characteristic defects was developed. A useful starting point was the “dorso-anterior index” (DAI). The DAI originally was constructed by adding new morphological characteristics to the older “index of axis deficiency” (S. R. Scharf et al., Dev. Biol., 99, 75-87 (1983)). The DAI is a scale of dorsoanterior development wherein embryos are assigned a score based on degree of dorsoanterior phenotype (K. R. Kao et al., Dev. Biol., 127, 64-77 (1988)). The scale encompasses a score of 0 (for the most axis-deficient or ventralized embryos) to 10 (for embryos with the most enhanced dorsoanterior structures), with a score of 5 signifying a normal embryo.
Because the DAI focuses only on dorsoanterior phenotypes, other categories were added to describe possible defects more comprehensively, with an emphasis on characteristics that are easily and unambiguously recognized in intact embryos, and that are diagnostic of possible effects on morphogenesis during gastrulation and neurulation. The most useful and readily scored categories that covered the most frequent deficiencies were: reduced anterior structures and microcephaly, delayed appearance or absence of eye pigmentation, overall shortness along the anteroposterior axis, bent axis, bent tail only, reduced posterior structures/tail, malformed or reduced fins, delayed or failed neural tube closure (neural fold fusion), abnormal pigmentation pattern, ventral swelling (edema), and delayed or abnormal visceral organogenesis and yolk resorption. In addition, blastopore closure, an earlier process that marks the completion of gastrulation, was observed.
In these tests, test compounds were added individually to wells each containing 4-8 embryos in 12-well plates. Embryos at stage 8.5-9, according to the classification of Nieuwkoop and Faber (P. I. Nieuwkoop et al., Normal Table of Xenopus laevis (Daudin). Amsterdam: North-Holland Publ.) (1967)), were used because these are late blastula stages before gastrulation begins at stage 10, which allowed focusing primarily on compounds that affect morphogenetic events in gastrulation and neurulation. These embryos, therefore, have undergone a midblastula transition at stage 8 (cleavage division 12) when zygotic transcription begins (J. Newport et al., Cell, 30, 675-686 (1982); J. Newport et al., Cell, 30, 687-696 (1982)) but have not yet started the morphogenetic movements of gastrulation.
Standard procedures were used in the care of animals, gamete preparation, fertilization of oocytes, and culture of embryos (B. K. Kay et al., Methods in Cell Biology, Volumn 36 (San Diego: Academic Press, Inc.) (1991)). In order to stimulate ovulation, female frogs were injected with 500 units of human chorionic gonadotropin (HCG). Eggs were squeezed from female frogs 12 hours later. Testes were removed from euthanized male frogs that had been primed with 50 units of HCG 4-6 hours earlier. The testes were stored at 4° C. in single strength Marc's Modified Ringer's solution with 50 μg/ml gentamycin and used for no more than 10 days. Small pieces of testes were macerated and spread over eggs for in vitro fertilization in Petri dishes. Fertilized eggs were placed in one-tenth strength Modified Barth's Saline (MBS) with 50 μg/ml gentamycin at constant temperature (19° C.) in a temperature-controlled incubator and development allowed to proceed under these conditions. Embryos were dejellied by briefly swirling them in a solution of 2% (w/v) L-cysteine, pH 8.0. The embryos then were rinsed extensively with one-tenth strength MBS to wash out the cysteine. Experiments were started within an hour of dejellying the embryos.
Experiments were carried out in 12-well flat-bottom polystyrene plates with 4-8 embryos per well in 1.0 ml of one-tenth strength MBS with 50 μg/ml gentamycin at 19° C. […]

Test [1] deals with Madin-Darby canine kidney (MDCK) cell monolayers. Put plainly: scrape-wound closure assay in MDCK cell monolayers. The test is classed as cell-based. The conditions noted are these: even at the highest concentration tested (500 μM). The source says:
A method of determining the ability of a compound to inhibit or accelerate cell motility is a scrape-wound closure assay using cultured mammalian epithelial cell monolayers. Mechanical scraping of the epithelial monolayer induces cell sheet migration into the resulting gap, a phenomenon characteristic of wounded epithelia and mechanistically related to normal epithelial movements during embryonic morphogenesis (A. Jacinto et al., Nat. Cell Biol, 3, E117 (2001)). Epithelial cell sheet migration in this method proceeds by a Rac- and phosphoinositide-dependent cell crawling mechanism resembling the motility of other animal cells that move as individuals rather than as cell sheets (G. Fenteany et al., Curr. Biol., 10, 831 (2000)).
Wound closure in MDCK cell monolayers primarily involves cell spreading and motility rather than proliferation based on observations and treatments that block cell growth without inhibiting closure. However, after closure is complete and the gap is covered, cell division is observed in the former wound area, presumably as part of a homeostatic mechanism to regain the original cell density (M. F. Olson et al., Science, 269, 1270 (1995)). Wound closure involves Rac- and phosphoinositide-dependent actin polymerization and protrusion-driven cell crawling behavior, where force generation for movement is distributed from the wound margin to several rows of cells behind the margin. Accordingly, this method is excellent for determining whether a compound affects cell motility.
Cell culture conditions: Madin-Darby canine kidney (MDCK) cells (American Type Culture Collection cell line CCL-34) were cultured in Minimum Essential Medium (with Earle's balanced salts, non-essential amino acids, L-glutamine and sodium pyruvate) supplemented with 10% newborn calf serum at 37° C. and 5% carbon dioxide (CO2). Main cultures were grown in either […] tissue culture flasks with medium changes every two days. When cultures were about 75% confluent, cells were passaged by rinsing twice with single strength phosphate buffered saline (PBS) and treating with a solution of 0.05% (w/v) trypsin/0.02% (w/v) ethylenediaminetetraacetic acid (EDTA) in PBS to detach cells from the flasks. After cells were detached, an equal volume of serum-containing medium was added to inhibit the trypsin and cell density was determined using a hemacytometer. Cells were replated following dilution in fresh medium on new tissue culture flasks for continued culture and multiwell tissue culture plates for experiments. No culture used exceeded 15 passages. Experimental cultures were grown in 12-, 24-, 48-, or 96-well tissue culture plates with medium changes every two days.
Wound closure assay and compound screening: MDCK cells were plated on multiwell tissue culture plates and cultured at 37° C. and 5% CO2 with medium changes every two days until confluent. When the cultures reached confluence, medium was changed again and all experimental treatments were begun a day later. Compounds were solubilized in dimethyl sulfoxide (DMSO) and added with fresh-medium to cell cultures at initial screening concentrations of 10 and 100 μM. Controls consisted of parallel wells to-which DMSO solvent carrier alone was added at the same concentration as that added with experimental treatments (not exceeding 0.1% (v/v)). DMSO alone at this concentration had no detectable effect on the cells. Monolayers were scraped 30 min later with a micropipette and ultramicro tips, allowing small wounds of consistent size to be generated. Progress of wound closure was examined at set time intervals following wounding by microscope, and inhibitory or acceleratory effects on wound closure relative to parallel controls noted. […] Digital images of the wounded monolayers were taken every 2 hours for 18 hours, and then at 30, 36, 54, 60, and 72 hours following wounding. The number of lamellipodia at the wound margin was also counted at these times. […]

In another test the test system is MDCK cell wounds. Briefly: lamellipodial density at the margin of MDCK cell wounds. Format: cell-based, canine. Also on record: key to Lamellipodial Density: lamellipodial protrusions per unit margin perimeter length. Particulars: 50 μM, mean ± SEM, * p<0.05 vs control. The method, then:
Lamellipodial protrusion is known to drive most forms of animal cell crawling. At any given time in the migrating cell sheet, some cells are extending lamellipodia at the margin while others are not. […] Therefore, inhibition of cell sheet migration by compound 1 at least in part is attributed to reduced formation of lamellipodia at the would margin.
Lamellipodial density at the margin of MDCK cell wounds was determined under the following treatment conditions: 0.1% DMSO (control, n=25 wounded monolayers), 50 μM compound 1 (n=19), or 50 μM compound 11 (n=10). Lamellipodial density is the number of lamellipodial protrusions detected at the wound margin until closure for the times indicated divided by margin perimeter length. Values are mean±SEM.
Wound closure assay and compound screening: MDCK cells were plated on multiwell tissue culture plates and cultured at 37° C. and 5% CO2 with medium changes every two days until confluent. When the cultures reached confluence, medium was changed again and all experimental treatments were begun a day later. Compounds were solubilized in dimethyl sulfoxide (DMSO) and added with fresh-medium to cell cultures at initial screening concentrations of 10 and 100 μM. Controls consisted of parallel wells to-which DMSO solvent carrier alone was added at the same concentration as that added with experimental treatments (not exceeding 0.1% (v/v)). DMSO alone at this concentration had no detectable effect on the cells. Monolayers were scraped 30 min later with a micropipette and ultramicro tips, allowing small wounds of consistent size to be generated. Progress of wound closure was examined at set time intervals following wounding by microscope, and inhibitory or acceleratory effects on wound closure relative to parallel controls noted. […] Digital images of the wounded monolayers were taken every 2 hours for 18 hours, and then at 30, 36, 54, 60, and 72 hours following wounding. The number of lamellipodia at the wound margin was also counted at these times.

Another test has as its system MDCK cells. Briefly: MDCK cell proliferation. Format: cell-based, canine. The protocol: In FIG. 2A, cells were plated at low cell density (1×10^4 cells/mL) and allowed to attach and begin to grow for 48 hours prior to the start of experiment. The treatments were 0.1% DMSO (control, n=9 cultures), 50 μM compound 1 (n=8), or 50 μM compound 11 (n=7). Reported values are mean with SEM of the percent increase in cell number from 0 to 48 hours after addition of compound 1.
The values were mean with SEM of the percent increase in cell number another 48 hours after replacement of medium containing 50 μM compound 1 (n=8 cultures) or 0.1% DMSO (n=9) with fresh medium containing 0.1% DMSO.
MDCK cell proliferation: MDCK cells were plated on multiwell tissue culture plates at low density ([…]). Cells were allowed to attach and begin to grow for 48 hours before the start of the experiment. Fresh medium with or without compound was then added, and cells were incubated for 48 hours. At both 0 and 48 hours, some of the parallel wells for control and compound treatments were washed twice with PBS and treated with trypsin/EDTA solution to detach the cells. An equal volume of medium was added, cells were collected and counted using a hemacytometer. For reversibility, some of the parallel cultures for both control and compound treatments were grown another 48 hours after washing twice with PBS and replacing medium with fresh compound-free medium. At both the time of washing out and 48 hours later, some of the parallel wells for control and compound treatments were washed twice with PBS, detached from the plates with trypsin/EDTA solution, and the number of cells was counted.

Setting [2] is: 72 hr after treatment, dose-response, 5 concentrations.

Each structure is given as a SMILES string. Like-named read-outs stand apart in the source and are kept apart here.

As usually defined, the EC50 is the concentration giving half of the maximal effect. For the compound `C/C=C/C(=O)N1C(=O)OC[C@H]1Cc1ccccc1` [Compound 45], the EC50 with Xenopus laevis embryos (72 h) was determined as 8.9 µM.

For `C=CC(=O)N1C(=O)OC[C@@H]1Cc1ccccc1` [Compound 52], the EC50 with Xenopus laevis embryos (72 h) came to 6.1 µM.

Consider `CC/C=C/C(=O)N1C(=O)OC[C@@H]1Cc1ccccc1` [Compound 13], for which the EC50 in the test with Xenopus laevis embryos (setting [2]) stood at 54.6 µM.

`C/C=C/C(=O)N1C(=O)OC[C@@H]1c1ccccc1` [Compound 30]: the half-maximal effective concentration (EC50) with Xenopus laevis embryos (72 h) was 10.1 µM.

Take `C/C=C/C(=O)N1C(=O)O[C@H](c2ccccc2)[C@H]1C` [Compound 26]: in the test with Xenopus laevis embryos (72 h), the EC50 turned out to be 12.7 µM.

Take `CCCC(=O)N1C(=O)OC[C@@H]1Cc1ccccc1` [Compound 11]: the “bioactivity in wound closure assay” value in test [1] was “no statistically significant bioactivity”. For the same compound, the “Lamellipodial Density” value was found to be 0.563 ± 0.148 with MDCK cell wounds (2 hours); 1.139 ± 0.270 in the test on MDCK cell wounds (4 hours); 1.289 ± 0.276 with MDCK cell wounds (6 hours); 1.196 ± 0.312 with MDCK cell wounds (8 hours); 1.609 ± 0.357 in the test on MDCK cell wounds (10 hours); 1.368 ± 0.309 in the test on MDCK cell wounds (12 hours). Also, in the test with MDCK cells (50 μM, 0 to 48 hours), the “inhibition of MDCK cell proliferation (percent increase in cell number)” value was “not”. The “bioactivity in cell proliferation assay” value in the test on MDCK cells (even at the highest concentration tested (500 μM)) was “no statistically significant bioactivity”.

On to `C/C=C\C(=O)N1C(=O)OC[C@@H]1Cc1ccccc1` [Compound 17], for which the 50% effective concentration (EC50) in the test with Xenopus laevis embryos (72 h) was 19.1 µM.

For the compound `O=C(/C=C/c1cccc(F)c1)N1C(=O)OC[C@@H]1Cc1ccccc1` [Compound 33], in the test on Xenopus laevis embryos (setting [2]), the 50% effective concentration (EC50) is 47.6 µM.

For `C/C=C/C(=O)N1C(=O)OC[C@@H]1C(C)C` [Compound 15], the EC50 with Xenopus laevis embryos (72 h) worked out at 25.9 µM.

On to `CCCCC/C=C/C(=O)N1C(=O)OC[C@@H]1Cc1ccccc1` [Compound 23], for which the EC50 with Xenopus laevis embryos (setting [2]) was 58.1 µM.

Consider `C/C=C/C(=O)N1CCOC1=O` [Compound 6], for which, in the test with Xenopus laevis embryos (72 h), the EC50 is 39.1 µM.

For the compound `C/C=C/C(=O)N1C(=O)O[C@@H](c2ccccc2)[C@@H]1C` [Compound 25], the EC50 in the test on Xenopus laevis embryos (72 h) stood at 13.9 µM.

For `CC#CC(=O)N1C(=O)OC[C@@H]1Cc1ccccc1` [Compound 31], the concentration giving a half-maximal response (EC50) in the test on Xenopus laevis embryos (setting [2]) was 5.9 µM.

Consider `O=C(/C=C/c1cccc(C(F)(F)F)c1)N1C(=O)OC[C@@H]1Cc1ccccc1` [Compound 54], for which the EC50 in the test with Xenopus laevis embryos (setting [2]) stood at 30.4 µM.
